Experimental data reported in ChEMBL document CHEMBL5149963, “Xanthenes in Medicinal Chemistry - Synthetic strategies and biological activities” (Eur J Med Chem, 2021).
Values after ≈ are worked out from the molar mass of the structure shown.

Columns and labels:
[1] = Activation of AMPK in rat L6 cells assessed as increase in AMPK phosphorylation; type: cell-based
[2] = system: HeLa; assay: Cytotoxicity against human HeLa cells incubated for 48 hrs by MTT assay; type: functional, cell-based
[3] = system: Bel-7402; assay: Cytotoxicity against human Bel-7402 cells incubated for 48 hrs by MTT assay; type: functional, cell-based; conditions: Bel-7402, 48 h
[4] = system: MG-63; assay: Cytotoxicity against human MG-63 cells incubated for 48 hrs by MTT assay; type: functional, cell-based; conditions: MG-63, 48 h
[5] = system: SK-BR-3; assay: Cytotoxicity against human SK-BR-3 cells incubated for 48 hrs by MTT assay; type: functional, cell-based; conditions: SK-BR-3, 48 h
[6] = system: NB-4; assay: Antiproliferative activity against human NB-4 cells; type: functional, cell-based
[7] = system: SW480; assay: Antiproliferative activity against human SW480 cells assessed as reduction in cell viability measured after 48 hrs by trypan blue staining method; type: functional, cell-based; conditions: SW480, 48 h
[8] = system: HepG2; assay: Antiproliferative activity against human HepG2 cells assessed as reduction in cell viability measured after 48 hrs by trypan blue staining method; type: functional, cell-based; conditions: HepG2, 48 h
[9] = Antioxidant activity assessed as ABTS radical scavenging activity at 50 to 250 microg/ml incubated for 7 mins relative to control; type: functional; conditions: dose 50-250 µg/ml
[10] = Antioxidant activity assessed as DPPH radical scavenging activity at 50 to 250 microg/ml incubated for 20 mins relative to control; type: functional; conditions: dose 50-250 µg/ml
[11] = target: Glucocorticoid receptor (Homo sapiens) (UniProt P04150); assay: Binding affinity to human GR assessed as inhibition of enzyme substrate complex formation
Glucocorticoid receptor (Homo sapiens), sequence (P04150 whole entry): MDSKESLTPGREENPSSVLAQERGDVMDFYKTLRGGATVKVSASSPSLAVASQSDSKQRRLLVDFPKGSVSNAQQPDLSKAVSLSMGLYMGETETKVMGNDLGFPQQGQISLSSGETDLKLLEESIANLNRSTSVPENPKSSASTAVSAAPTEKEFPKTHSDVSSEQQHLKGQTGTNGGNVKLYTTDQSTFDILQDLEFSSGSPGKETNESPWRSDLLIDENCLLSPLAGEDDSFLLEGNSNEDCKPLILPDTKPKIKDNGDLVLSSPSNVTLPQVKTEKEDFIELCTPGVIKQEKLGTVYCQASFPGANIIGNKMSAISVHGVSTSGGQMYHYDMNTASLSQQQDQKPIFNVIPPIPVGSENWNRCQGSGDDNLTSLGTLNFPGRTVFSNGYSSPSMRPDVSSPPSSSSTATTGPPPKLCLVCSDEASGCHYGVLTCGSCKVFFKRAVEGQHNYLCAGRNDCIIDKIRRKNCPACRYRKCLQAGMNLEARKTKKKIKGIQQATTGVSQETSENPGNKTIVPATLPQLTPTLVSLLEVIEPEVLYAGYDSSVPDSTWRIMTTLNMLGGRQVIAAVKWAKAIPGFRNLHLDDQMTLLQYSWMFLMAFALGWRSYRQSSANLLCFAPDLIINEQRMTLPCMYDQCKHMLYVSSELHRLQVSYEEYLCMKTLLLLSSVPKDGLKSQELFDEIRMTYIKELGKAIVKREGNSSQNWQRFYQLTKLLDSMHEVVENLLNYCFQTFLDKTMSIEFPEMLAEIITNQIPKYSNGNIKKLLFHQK

[12] = Antioxidant activity assessed as DPPH radical scavenging activity relative to control; type: functional; design: concentration or dose not given beside the values
[13] = Cytotoxicity against normal lung fibroblast cells (unknown origin); type: toxicity, cell-based
[14] = Cytotoxicity against normal primary bone marrow fibroblast cells (unknown origin); type: toxicity, cell-based
[15] = system: unidentified influenza virus; assay: Antiviral activity against influenza virus; type: functional, organism-based
[16] = Cytotoxicity against neuroblastoma cells (unknown origin); type: functional, cell-based; conditions: Neuroblastoma cell
[17] = Cytotoxicity against normal foreskin fibroblast cells (unknown origin); type: toxicity, cell-based
[18] = system: Human immunodeficiency virus; assay: Antiviral activity against Human immunodeficiency virus; type: functional, organism-based; conditions: Human immunodeficiency virus 1
[19] = Cytotoxicity against rhabdomyosarcoma cells (unknown origin); type: functional, cell-based; conditions: Rhabdomyosarcoma cell
[20] = Cytotoxicity against osteosarcoma cells (unknown origin); type: functional, cell-based; conditions: Osteosarcoma cell
[21] = system: Vesicular stomatitis virus; assay: Antiviral activity against Vesicular stomatitis virus; type: functional, organism-based
[22] = Cytotoxicity against ewing sarcoma cells (unknown origin); type: functional, cell-based; conditions: Ewing sarcoma cell
[23] = system: Bacillus subtilis; assay: Antibacterial activity against Bacillus subtilis ATCC 23857 by disc diffusion assay; type: functional
[24] = system: Leishmania donovani; assay: Antiprotozoal activity against Leishmania donovani; type: functional; conditions: read-out: ED50 (the source's name)
[25] = system: Trypanosoma brucei; assay: Antiprotozoal activity against Trypanosoma brucei; type: functional; conditions: read-out: ED50 (the source's name)
[26] = system: Trypanosoma cruzi; assay: Antiprotozoal activity against Trypanosoma cruzi; type: functional; conditions: read-out: ED50 (the source's name)
[27] = system: Plasmodium falciparum; assay: Antimalarial activity against chloroquine resistant Plasmodium falciparum K14 in human blood assessed as reduction in parasitemia measured after 42 hrs; type: functional, organism-based
[28] = system: CHO; assay: Cytotoxicity against CHO cells measured after 48 hrs by MTT assay; type: toxicity, cell-based, Cricetulus griseus; conditions: chinese hamster
[29] = system: Plasmodium falciparum; assay: Antimalarial activity against chloroquine resistant Plasmodium falciparum K1 in human erythrocytes; type: functional, organism-based; conditions: K1, Erythrocyte

In the case of `N#Cc1cccc(NC(=O)NC(NC(=O)C2c3ccccc3Oc3ccccc32)C(Cl)(Cl)Cl)c1` (centres undefined), the EC50 [1] is reported as 0.0015 mM.
In the case of `O=C1C=Cc2cccc3c2C1c1c(ccc2ccccc12)O3` (centres undefined), the IC50 [2] is reported as 18.5 µM, the IC50 [3] is reported as 17.6 µM and the IC50 [4] is reported as 20.1 µM. The IC50 [5] was 15.5 µM.
Molecule `Cc1ccc(C2c3cc(-c4ccccc4)ccc3Oc3ccc4ccccc4c32)cc1` (centres undefined) has an IC50 [6] of over 50 µM.
`COC(=O)c1cc2ccc(O)c3c2c(c1C(=O)OC)-c1cc(O)c(O)cc1O3` gave an IC50 [7] of 32.9 µM and an IC50 [8] of 34.8 µM.
`CCOC12C(=O)C(CO)=Cc3cc(CO)cc(c31)Oc1c(CO)cc3cc(CO)ccc3c12` (centres undefined) gave an IC50 [2] of 9.4 µM, an IC50 [3] of 10.1 µM and an IC50 [4] of 25.2 µM. For the same molecule, the IC50 [5] was 6.2 µM.
`COC(=O)c1cc2ccc(OC)c3c2c(c1C(=O)OC)-c1cc(OC)c(OC)cc1O3` showed an IC50 [7] of over 100 µM and an IC50 [8] of over 100 µM.
For `COc1ccc(C2c3c(ccc4ccccc34)Oc3ccc4ccccc4c32)cc1OC`, the Activity [9] was 70.8% and the Activity [10] was 52.6%.
Molecule `Cc1cc2nc3cc(C)c(N)cc3[n+](-c3ccccc3)c2cc1N` has a Kis [11] of 453 µM.
`COC(=O)c1cc2ccc(OC(C)=O)c3c2c(c1C(=O)OC)-c1cc(OC(C)=O)c(OC(C)=O)cc1O3` gave an IC50 [7] of 25.5 µM and an IC50 [8] of 28.6 µM.
For `Clc1ccc(C2c3cc(-c4ccccc4)ccc3Oc3ccc4ccccc4c32)cc1` (centres undefined), the IC50 [6] was over 50 µM.
For `O=C1C(CO)=Cc2cccc3c2C1(O)c1c(ccc2ccccc12)O3` (centres undefined), the IC50 [2] was 68.8 µM, the IC50 [3] was 45.2 µM and the IC50 [4] was 54.8 µM. For the same molecule, the IC50 [5] was 26.2 µM.
With `COC(=O)[C@@]1(O)C[C@@H](OC(=O)c2c(C(=O)O[C@@H]3C[C@](O)(C(=O)OC)C[C@@H]4OC(C)(C)O[C@H]43)cc3ccc(O)c4c3c2-c2cc(O)c(O)cc2O4)[C@@H]2OC(C)(C)O[C@@H]2C1` the Activity [12] was 28.1%.
With `O=C(O)/C=C/c1ccc(O)c(O)c1` the Activity [12] was 58.6%.
`O=C(O)c1c(Cl)c(Cl)c(Cl)c(Cl)c1-c1c2cc(I)c(=O)c(I)c-2oc2c(I)c(O)c(I)cc12` [ROSE BENGAL SODIUM] showed an IC50 [13] of 75 µM, an IC50 [14] of 136 µM and an IC50 [15] of 300 nM. The IC50 [16] was 73 µM, the IC50 [17] was 73 µM and the IC50 [18] was 50 nM. For the same molecule, the IC50 [19] was 51 µM, the IC50 [20] was 75 µM and the IC50 [21] was 8 nM. It also gave an IC50 [22] of 45 µM.
For `COC12C(=O)C=Cc3cc(Br)cc(c31)Oc1ccc3cc(Br)ccc3c12` (centres undefined), the IC50 [2] was 28.1 µM, the IC50 [3] was 42.3 µM and the IC50 [4] was 39.2 µM. It also gave an IC50 [5] of 14.3 µM.
`CNC(=O)c1ccc2c3c(ccc2c1)Oc1ccc2cc(C(=O)NC)ccc2c1C3c1ccc(F)cc1` showed an IC50 [6] of 0.52 µM.
Molecule `O=C(N[C@H](CO)[C@H](O)c1ccc([N+](=O)[O-])cc1)C(Cl)Cl` [CHLORAMPHENICOL] has an MIC [23] of 68.7 µg/mL (≈ 213 µM).
Work on `CN(C)C(=N)NC(=N)N` [METFORMIN] yielded an EC50 [1] of 10 mM.
Work on `CN(C)CCCNC(=O)c1cc(C(C)(C)C)cc2c1Oc1c(C(=O)NCCCN(C)C)cc(C(C)(C)C)cc1C2(C)C` yielded an EC50 [24] of 550 nM, an EC50 [25] of 20 nM and an EC50 [26] of 480 nM.
For `CCOc1ccc(N2C(=O)C3(c4ccccc4Oc4ccccc43)C23c2ccccc2-c2ccccc23)cc1`, the IC50 [27] was 5 µM.
Work on `CN(C)CCCNCC1c2ccccc2Oc2ccccc21` yielded an IC50 [28] of 331.1 µM and an IC50 [29] of 780 nM.
